Results on two compounds are retold here after US20170067909A1, “ASSAY-READY RECOMBINANT CELLS TRANSIENTLY OVEREXPRESSING GENES ENCODING DRUG TRANSPORTER PROTEINS AND/OR DRUG METABOLIZING ENZYMES” (Corning Incorporated, priority 2012, published 2017).

What is called Km is the substrate concentration at which the rate is half of its maximum.

In data set [1] the test system is dog Oatp1b4.
The target of data set [2] is T1, Organic Anion-Transporting Polypeptide 1B1 (Homo sapiens, UniProt Q9Y6L6).
T1 construct: host or cells: HEK293 cells, gene delivered by electroporation
T1 sequence (Q9Y6L6 1-691): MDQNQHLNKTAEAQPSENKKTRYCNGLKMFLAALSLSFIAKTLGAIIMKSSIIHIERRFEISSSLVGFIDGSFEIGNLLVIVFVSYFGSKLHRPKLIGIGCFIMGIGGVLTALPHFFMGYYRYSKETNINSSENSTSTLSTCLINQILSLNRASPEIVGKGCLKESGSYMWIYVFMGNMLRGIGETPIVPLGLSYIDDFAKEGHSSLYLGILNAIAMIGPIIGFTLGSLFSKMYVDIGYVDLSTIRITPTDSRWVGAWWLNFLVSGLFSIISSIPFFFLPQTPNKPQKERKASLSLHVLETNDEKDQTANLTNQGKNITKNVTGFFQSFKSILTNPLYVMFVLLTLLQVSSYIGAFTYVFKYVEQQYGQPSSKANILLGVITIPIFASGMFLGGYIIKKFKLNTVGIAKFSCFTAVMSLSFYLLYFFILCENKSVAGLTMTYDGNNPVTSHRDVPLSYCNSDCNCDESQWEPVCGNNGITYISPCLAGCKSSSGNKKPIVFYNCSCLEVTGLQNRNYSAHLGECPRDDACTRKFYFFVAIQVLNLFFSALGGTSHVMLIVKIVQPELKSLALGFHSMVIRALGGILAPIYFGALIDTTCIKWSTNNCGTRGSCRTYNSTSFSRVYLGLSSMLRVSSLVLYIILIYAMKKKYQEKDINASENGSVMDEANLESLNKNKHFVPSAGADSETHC
Put plainly: Suspension assay, centrifugation method, Corning TransportoCells OATP1B1*1a. Particulars: 5× substrate solution containing 25 μM, 10 minutes at 37° C., 600 k cells/well. The data set is classed as in vitro ADME. From the text: In this experiment, a suspension assay for characterizing the activity of a drug transporter protein in cryopreserved, Corning® TransportoCells™ was developed. More specifically, the use of a centrifugation method versus a vacuum manifold for separating unreacted substrate in characterizing the activity of Organic Anion-Transporting Polypeptide 1B1 was investigated. Corning® TransportoCells™ transiently transfected with the gene OATP1B1*1a were obtained from Corning Life Sciences (Cat. No. 354859). In the Corning® TransportoCells™, the gene OATP1B1*1a was delivered into HEK293 cells via electroporation and the HEK293 cells were recovered and cryopreserved 1 hour post-electroporation. In order to obtain suitable expression of the Organic Anion-Transporting Polypeptide 1B1 encoded by OATP1B1*1a, the Corning® TransportoCells™ were thawed, cultured, and harvested.
The cells were cultured in T-175 Vented-Cap Culture Flasks with Poly-D-Lysine (hereinafter, “PDL”; available from Corning Life Sciences, Cat. No. 354539) with plating medium for 48 hours at 37° C. and 8% CO2. The plating medium is detailed in Table 16. After 24 hours, sodium butyrate (obtained from Sigma) was added to the cells to reach final 5 mM. After 48 hours, the cells were rinsed twice with Phosphate-Buffered Saline (hereinafter, “PBS”, obtained from Corning).
The cells were then harvested with 0.05% Trypsin (obtained from Sigma) and washed once with Hank's Balanced Salt Solution (hereinafter, “HBSS”) buffer (with Ca^2+ and Mg^2+, obtained from Corning). Then, the cells were resuspended in HBSS (obtained from Corning) to a final cell density of 3×10^6 cells/ml. Two suspension assay experiments were then performed to characterize the activity of Organic Anion-Transporting Polypeptide 1B1 in the Corning® TransportoCells™.
In a first suspension assay experiment, use of a centrifugation method was investigated to separate excess substrate and cells. Referencing FIG. 20, in the first suspension assay experiment, the resuspended Corning® TransportoCells™ were aliquotted (200 μl per well at a density of 600 k cells/well) into either a Corning® 96 Well Clear Round Bottom TC-Treated Microplate (available from Corning Life Sciences, Cat. No. 3799) or a Corning® 96 Well Clear V-Bottom TC-Treated Microplate (available from Corning Life Sciences, Cat. No. 3894). […] The cells were then incubated for 10 minutes at 37° C. After the incubation time, the reaction was stopped by adding ice cold HBSS buffer (50 μl) to the cells and placing the microplates on ice. Then, the microplates were centrifuged at 3000 g for 1 minute at 4° C. […] The cell lysis was then subjected to the appropriate protein analysis and/or fluorescence analysis to characterize the activity of Organic Anion-Transporting Polypeptide 1B1.

The target in data set [3] is T1, Organic Anion-Transporting Polypeptide 1B1. The data set is described as follows: Positive control plated (adherent) assay, Corning TransportoCells OATP1B1*1a. The class given is in vitro ADME. Conditions: PC: Plated Assay, Seeded at 250k/well (24-well), assay at 48 hours; 5 uM FMTX, 10 min. The text has this:
A positive control was provided via an adherent assay for characterizing the activity of a drug transporter protein in cryopreserved, Corning® TransportoCells™. Corning® TransportoCells™ transiently transfected with the gene OATP1B1*1a were obtained from Corning Life Sciences (Cat. No. 354859). In order to obtain suitable expression of the Organic Anion-Transporting Polypeptide 1B1 encoded by OATP1B1*1a, the Corning® TransportoCells™ were thawed, cultured, and harvested. […] The cells were cultured via plating in a 24-well PDL-Treated Plate (cell density of 250K cells/well; obtained from Corning Life Sciences) with plating medium for 48 hours at 37° C. and 8% CO2. The plating medium is detailed in Table 16. After 24 hours, cells were refed by 400 uL plating media supplemented with 5 mM sodium butyrate (obtained from Sigma). After 48 hours, cells were washed three times using 0.4 mL prewarmed HBSS (Corning). Then 0.3 mL substrate solution containing 5 uM FMTX were added to the cells and the cells were incubated for 10 min at 37 degree. After 10 min incubation time, the cells were washed 3 times using 0.4 mL cold HBSS. The cells were lysed and subjected to the BCA protein analysis and/or fluorescence analysis to characterize the activity of Organic Anion-Transporting Polypeptide 1B1.

Turning to `C[C@]12CC[C@@H]3c4ccc(O)cc4CC[C@H]3[C@@H]1CC[C@@H]2O[C@@H]1O[C@H](C(=O)O)[C@@H](O)[C@H](O)[C@H]1O` [E17βG], the Km in data set [1] was found to be 12.2 ± 0.6 µM. In data set [1] (HEK-293 cells overexpressing the transporter), the “uptake of substrate (in words)” value is on record as “significant uptake”.

fluorescein methotrexate [FMTX]: the “Uptake Activity OATP1B1” value in data set [2] (Round Bottom) was determined as 0.38 pmol/mg/min; in data set [2] (V-Bottom), 1.04 pmol/mg/min; in data set [3], 1.06 pmol/mg/min. Moreover, the entries for the “Uptake Ratio” value in data set [2] (Round Bottom), in data set [2] (V-Bottom) and in data set [3] were 10.9, 102.3 and 30.6, respectively.
